Here are results for nine compounds from ChEMBL document CHEMBL4428126, “Identification and Structural Characterization of Three New Metabolites of Bupropion in Humans” (ACS Med Chem Lett, 2016).

The nature of data set [1]: Drug level in human liver microsome treated with bupropion at 10 uM preincubated for 5 mins followed by addition of NADPH measured after 20 mins by LC-MS/MS analysis. The settings on record: microsomes. It is filed as ADME.
Data set [2] is described as follows: Drug metabolism in human liver cytosol assessed as formation of metabolites with m/z transitions of 258 to 184 at 10 uM preincubated for 5 mins followed by addition of NADPH measured after 20 mins by LC-MS/MS analysis. It is filed as ADME, subcellular.
The nature of data set [3]: Drug metabolism in human liver microsomes assessed as formation of metabolites with m/z transitions of 258 to 184 at 10 uM preincubated for 5 mins followed by addition of NADPH measured after 20 mins by LC-MS/MS analysis. Type of data set: ADME, Microsome. A general note: Liver microsomes are vesicles of endoplasmic reticulum, rich in cytochrome P450 enzymes.
Data set [4] has as its target T1, Cytochrome P450 2C19 (Homo sapiens, UniProt P33261). Put plainly: Drug metabolism assessed as recombinant CYP2C19 (unknown origin)-mediated erythro-4'-OH-bupropion formation at 1 uM preincubated for 5 mins followed by addition of NADPH measured after 20 mins by LC-MS/MS method. It is filed as ADME. To be noted: recombinant enzyme.
Data set [5] is described as follows: Drug recovery in urine of human treated with bupropion assessed as free drug level administered orally measured over steady state dosing interval. Type of data set: ADME, tissue-based. The settings on record: po.
Data set [6] is described as follows: Drug recovery in urine of human treated with bupropion assessed as conjugated drug level administered orally measured over steady state dosing interval. Type of data set: ADME. To be noted: po.
Data set [7] has as its target T1, Cytochrome P450 2C19. Put plainly: Drug metabolism assessed as recombinant CYP2C19 (unknown origin)-mediated threo-4'-OH-bupropion formation at 1 uM preincubated for 5 mins followed by addition of NADPH measured after 20 mins by LC-MS/MS method. Type of data set: ADME. To be noted: recombinant enzyme.
Data set [8] is described as follows: Drug metabolism in human liver microsomes assessed as hydroxylation of t-butyl group preincubated for 5 mins followed by addition of NADPH measured after 20 mins by LC-MS/MS analysis. It is filed as ADME, Microsome.
A short description of data set [9]: Drug excretion in acid deconjugated urine of human subjects treated with 300 mg/day bupropion by LC/MS/MS analysis. It is filed as ADME, tissue-based.
A short description of data set [10]: Drug level in human liver microsomes treated with 10 uM threohydrobupropion assessed as compound formation with m/z transitions of 258 to 184 preincubated for 5 mins followed by addition of NADPH measured after 20 mins by LC-MS/MS analysis. It is filed as ADME, Microsome.
Data set [11] can be described thus: Drug level in human liver microsomes treated with threohydrobupropion-d9 assessed as hydroxylation of t-butyl group preincubated for 5 mins followed by addition of NADPH measured after 20 mins by LC-MS/MS analysis. It is filed as ADME, Microsome.
Data set [12] is described as follows: Drug metabolism in acid deconjugated urine of human subjects assessed as metabolite M4 formation at 300 mg/day by LC/MS/MS analysis. Type of data set: ADME, tissue-based.
Data set [13] can be described thus: Drug level in plasma of human subjects assessed as compound formation treated with 300 mg/day bupropion by LC/MS/MS analysis. It is filed as ADME, cell-free.
Data set [14] is described as follows: Drug level in human liver microsomes treated with 10 uM erythrohydrobupropion assessed as compound formation with m/z transitions of 258 to 184 preincubated for 5 mins followed by addition of NADPH measured after 20 mins by LC-MS/MS analysis. It is filed as ADME, Microsome.
Data set [15] can be described thus: Drug recovery in human urine administered as single oral dosage. It is filed as ADME, tissue-based. The settings on record: read-out: Drug recovery.
Data set [16] in a line: Drug recovery in human urine assessed as OH-bupropion administered as single oral dosage. Type of data set: ADME, tissue-based.
Data set [17] in a line: Drug recovery in human urine assessed as erythrohydrobupropion administered as single oral dosage. Type of data set: ADME, tissue-based.
A short description of data set [18]: Drug recovery in human urine assessed as threohydrobupropion administered as single oral dosage. Type of data set: ADME, tissue-based.
The nature of data set [19]: Drug excretion in human urine assessed as m-chlorohippuric acid administered as single oral dosage. It is filed as ADME, tissue-based.
Data set [20] is described as follows: Drug excretion in human urine assessed as polar metabolites formation administered as single oral dosage. Type of data set: ADME, tissue-based.
Data set [21] is described as follows: Drug metabolism in human liver microsomes assessed as NADPH-dependant 4'-OH-bupropion formation at 10 uM preincubated for 5 mins followed by addition of NADPH measured after 20 mins by LC-MS/MS analysis. It is filed as ADME, Microsome.
Data set [22] is described as follows: Drug metabolism in human liver microsomes assessed as NADPH-dependant metabolite formation at 10 uM preincubated for 5 mins followed by addition of NADPH measured after 20 mins by LC-MS/MS analysis. Type of data set: ADME, Microsome.
Data set [23] in a line: Drug metabolism in human plasma assessed as 4'-OH-bupropion formation at 300 mg/day by LC/MS/MS analysis. Type of data set: ADME, cell-free.
Data set [24] can be described thus: Drug excretion in human urine assessed as 4'-OH-bupropion formation at 300 mg/day by LC/MS/MS analysis. It is filed as ADME, tissue-based.
Data set [25] can be described thus: Drug metabolism in human plasma assessed as metabolite M2 formation at 300 mg/day by LC/MS/MS analysis. Type of data set: ADME, cell-free.
Data set [26] can be described thus: Drug metabolism in human urine assessed as metabolite M2 formation at 300 mg/day by LC/MS/MS analysis-MS analysis. It is filed as ADME, tissue-based.
Data set [27] is described as follows: Drug metabolism in acid deconjugated urine of human subjects assessed as metabolite M3 formation at 300 mg/day by LC/MS/MS analysis. It is filed as ADME, tissue-based.
Data set [28] is described as follows: Plasma concentration in human assessed as 4'-OH-bupropion at 300 mg/day by LC/MS/MS analysis. Type of data set: ADME, cell-free.
The nature of data set [29]: Plasma concentration in human assessed as threo-4'-OH-bupropion at 300 mg/day by LC/MS/MS analysis. It is filed as ADME, cell-free.
A short description of data set [30]: Plasma concentration in human assessed as erythro-4'-OH-bupropion at 300 mg/day by LC/MS/MS analysis. Type of data set: ADME, cell-free.
Data set [31] is described as follows: Drug recovery in human urine assessed as free and conjugated drug level administered orally measured over steady state dosing interval. It is filed as ADME, tissue-based. The settings on record: po.
Data set [32] can be described thus: Drug recovery in human urine assessed as free drug level administered orally measured over steady state dosing interval. The settings on record: po. Type of data set: ADME, tissue-based.
The nature of data set [33]: Drug recovery in human urine assessed as conjugated drug level administered orally measured over steady state dosing interval. Type of data set: ADME, tissue-based. The settings on record: po.
Data set [34] has as its target T1, Cytochrome P450 2C19. Put plainly: Drug metabolism assessed as recombinant CYP2C19 (unknown origin)-mediated 4'-OH-bupropion formation at 1 uM preincubated for 5 mins followed by addition of NADPH measured after 20 mins by LC-MS/MS method. The settings on record: recombinant enzyme. It is filed as ADME.
The nature of data set [35]: Drug metabolism in acid deconjugated urine of human subjects assessed as metabolite M6 formation at 300 mg/day by LC/MS/MS analysis. It is filed as ADME, tissue-based.
Data set [36] is described as follows: Drug metabolism in acid deconjugated urine of human subjects assessed as metabolite M7 formation at 300 mg/day by LC/MS/MS analysis. It is filed as ADME, tissue-based.
Data set [37] can be described thus: Drug metabolism in plasma of human subjects assessed as metabolite M4 formation at 300 mg/day by LC/MS/MS analysis. Type of data set: ADME, cell-free.
Data set [38] is described as follows: Drug metabolism in plasma of human subjects assessed as metabolite M6 formation at 300 mg/day by LC/MS/MS analysis. It is filed as ADME, cell-free.
Data set [39] is described as follows: Drug metabolism in plasma of human subjects assessed as metabolite M7 formation at 300 mg/day by LC/MS/MS analysis. It is filed as ADME, cell-free.

T1 sequence (P33261 whole entry): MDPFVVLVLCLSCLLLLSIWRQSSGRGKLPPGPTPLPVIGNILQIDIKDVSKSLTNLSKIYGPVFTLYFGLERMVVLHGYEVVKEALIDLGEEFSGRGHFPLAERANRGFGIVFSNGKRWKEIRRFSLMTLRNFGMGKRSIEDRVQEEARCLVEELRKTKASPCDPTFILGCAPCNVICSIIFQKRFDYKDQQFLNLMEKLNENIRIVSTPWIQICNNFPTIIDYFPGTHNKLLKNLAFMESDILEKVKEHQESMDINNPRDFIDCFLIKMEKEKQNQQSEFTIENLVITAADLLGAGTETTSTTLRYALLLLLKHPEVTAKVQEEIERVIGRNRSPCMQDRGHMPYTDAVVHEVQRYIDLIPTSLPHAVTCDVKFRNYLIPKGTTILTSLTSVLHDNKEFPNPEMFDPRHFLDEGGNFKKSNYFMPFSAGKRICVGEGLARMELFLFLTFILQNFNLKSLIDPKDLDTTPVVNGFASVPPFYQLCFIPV

In the case of `C[C@@H](NC(C)(C)C)[C@H](O)c1cccc(Cl)c1`, the Drug metabolism result is listed as “Metabolite_Detected” in data set [1], “Metabolite_Notdetected” in [2], “Metabolite_Detected” in [3] and “Metabolite_Detected” on Cytochrome P450 2C19 [4]. For the same compound, the Drug recovery in [5] was 63 µmol; in [6], 22 µmol.
`C[C@@H](NC(C)(C)C)[C@@H](O)c1cccc(Cl)c1`: the Drug metabolism entry in [1] is “Metabolite_Detected”; in data set [2], “Metabolite_Notdetected”; in [3], “Metabolite_Detected”; at Cytochrome P450 2C19 [7], “Metabolite_Detected”. For the same compound, the Drug recovery in [5] turned out to be 610 µmol; in [6] it was 250 µmol.
On to `[2H]C([2H])([2H])C(N[C@H](C)[C@@H](O)c1cccc(Cl)c1)(C([2H])([2H])[2H])C([2H])([2H])[2H]`, for which, in [8], the Drug metabolism result is “Metabolite_Notdetected”.
As to `C[C@@H](NC(C)(C)C)[C@H](O)c1ccc(O)c(Cl)c1`, the Drug metabolism entry in data set [3], in [10], in data set [11], in data set [12] and in data set [13] was “Metabolite_Detected” throughout. Besides, in data set [9], the Drug excretion result is on record as “Metabolite_Detected”. Also, the results for the Drug recovery in data set [5] and in data set [6] were 3.3 µmol and 160 µmol, respectively.
Consider `CC(NC(C)(C)C)C(=O)c1ccc(O)c(Cl)c1` (stereo not given), for which the results for the Drug metabolism entry in [1] and in data set [2] were “Metabolite_Detected” and “Metabolite_Notdetected”, respectively. Also, the Drug excretion result in data set [9] is reported as “Metabolite_Detected”. For the same compound, the figures for the Drug recovery in data set [5] and in data set [6] were 0.3 µmol and 29 µmol, respectively.
For `CC1NC(C)(C)COC1(O)c1cccc(Cl)c1` (stereo not given), the results for the Drug metabolism entry in data set [1], in data set [2] and in [3] were “Metabolite_Detected”, “Metabolite_Notdetected” and “Metabolite_Notdetected”, respectively. Moreover, the figures for the Drug recovery in [5] and in data set [6] were 77 µmol and 110 µmol, respectively.
Turning to `O=C(O)CNC(=O)c1cccc(Cl)c1`, the Drug recovery in data set [5] came to 167 µmol.
With `C[C@@H](NC(C)(C)C)[C@@H](O)c1ccc(O)c(Cl)c1` (relative stereo), the Drug metabolism result in data set [14], in data set [3], in data set [12] and in data set [13] was “Metabolite_Detected” in each case. For the same compound, the Drug excretion result in [9] is on record as “Metabolite_Detected”. Also, the Drug recovery in [5] stood at 0.9 µmol; in data set [6] it was 200 µmol.
`CC(NC(C)(C)C)C(=O)c1cccc(Cl)c1` (stereo not given) [BUPROPION]: the dose excreted in [15] was 23%. Besides, the Drug recovery was determined as 23 %ID in data set [16]; 23 %ID in [17]; 23 %ID in data set [18]; 1.4 %ID in data set [31]; 59 µmol in [32]; 6.5 µmol in data set [33]. For the same compound, the Drug excretion is reported as 22 %ID in data set [19], 36 %ID in data set [20] and “Metabolite_Detected” in data set [24]. Besides, the Drug metabolism entry in data set [21] was “Metabolite_Detected”; in data set [22] it was “Metabolite_Detected”; in data set [23], “Metabolite_Detected”; in [25], “Metabolite_Notdetected”; in [26], “Metabolite_Notdetected”; in [27], “Metabolite_Detected”. Besides, the Drug metabolism result (at Cytochrome P450 2C19 [34]; in data set [12]; in data set [35]; in data set [36]; in [37]; in data set [38]) was “Metabolite_Detected” in each case. Besides, the Drug metabolism result in [39] is “Metabolite_Detected”. The concentration was 12 nM in [28], 7 nM in data set [29] and 33 nM in [30].
